Laboratory results reported in patent publication US5240957A, “Oxysalicylamido derivatives” (Astra Lakemedel Akteibolag, priority 1984, dated 1993).

Legend:
dopamine receptors = target: T1, dopamine receptors (Rattus norvegicus, UniProt P61169); experiment: Receptor binding assay: in vitro block of 3H-spiperone binding, rat striatal membranes; set-up: species or system Male Sprague-Dawley rats; settings: rat striatum; 3H-spiperone 0.4 nM; 10 minutes at 37° C.
T1 construct: The striata were dissected, pooled and homogenized in 50 mM Tris-HCl buffer (pH 7.6); from tissue; host or cells: striata of male Sprague-Dawley rats, membrane fraction
T1 sequence (P61169 whole entry): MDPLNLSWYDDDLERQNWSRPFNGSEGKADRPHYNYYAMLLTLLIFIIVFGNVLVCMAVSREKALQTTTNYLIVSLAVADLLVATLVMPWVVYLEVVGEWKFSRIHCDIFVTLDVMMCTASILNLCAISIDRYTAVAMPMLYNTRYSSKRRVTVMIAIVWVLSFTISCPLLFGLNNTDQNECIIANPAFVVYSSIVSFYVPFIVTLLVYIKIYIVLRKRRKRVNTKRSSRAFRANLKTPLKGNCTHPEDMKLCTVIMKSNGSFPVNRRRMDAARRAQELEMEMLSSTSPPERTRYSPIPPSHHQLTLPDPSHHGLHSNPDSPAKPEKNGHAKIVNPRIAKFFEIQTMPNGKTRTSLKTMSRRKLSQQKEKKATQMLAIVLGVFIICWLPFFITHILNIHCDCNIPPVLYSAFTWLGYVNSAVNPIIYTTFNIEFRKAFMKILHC
Protocol: The assays have been carried out using a cell harvester equipment. The incubations were made in quadruplicate, each well containing membrane suspension (2.5 mg/0.5 ml), ^3 H-spiperone (0.4 nM) and the test compound in a final volume of 0.5 ml. After incubation for 10 minutes at 37° C., the contents of the wells were rapidly filtered and washed on Whatman GF/B filters using the Cell harvester. The specific binding was defined as the difference of ligand bound in the […] of 1 μM (+)-butaclamol. The test results are expressed as IC50.

apomorphine syndrome = settings: claimed in prior art; cited from earlier work
[1] = system: DA receptors in subcortical mesolimbic structures (apomorphine hyperactivity); experiment: Reduction of apomorphine-induced hyperactivity in the rat; assay type: in vivo, Male Sprague-Dawley rats; settings: i.p.; 60 min prior to apomorphine hydrochloride 1 mg/kg s.c.; 60 min observation
Source text: There are presently several techniques available to study DA receptor blockage in the brain in vivo. One method is based on the ability of antipsychotic drugs to block the behavioral effects induced by the DA agonist apomorphine in the rat. Several studies indicate an excellent correlation between the in vivo DA receptor blockage as measured in the apomorphine test and therapeutic efficacy of different antipsychotic drugs. Apomorphine produces in rats and other species a characteristic syndrome consisting of repetitive movements (stereotypies) and hyperactivity which appear to be due to activation of postsynaptic DA receptors in the brain (J. Pharm. Pharmacol. 19, 627, 1967; J. Neurol. transm. 40, 97-113, 1977). The stereotypies (chewing, licking, biting) appear mainly to be induced via activation of DA receptors linked to the nigro neostriatal DA system (J. Psychiat. Res., 11, 1, 1974) whereas the increased locomotion (hyperactivity) mainly appears to be due to activation of DA receptors in subcortical mesolimbic structures (nucleus olfactorium, nucleus accumbens) i.e. the mesolimbic DA system. (J. Pharm. Pharmacol. 25, 1003, 1973). […]
(§1) In the second system the number of animals displaying hyperactivity caused by apomorphine were scored. […] The ED50 were calculated from log dose-response curves by the method of least squares from 4-6 dose levels with 6-8 animals per dose level.

[2] = system: DA receptors linked to the nigro neostriatal DA system (apomorphine stereotypies); experiment: Reduction of apomorphine-induced stereotypies in the rat; assay type: in vivo, Male Sprague-Dawley rats; settings: i.p.; 60 min prior to apomorphine hydrochloride 1 mg/kg s.c.; 60 min observation
Source text: There are presently several techniques available to study DA receptor blockage in the brain in vivo. One method is based on the ability of antipsychotic drugs to block the behavioral effects induced by the DA agonist apomorphine in the rat. Several studies indicate an excellent correlation between the in vivo DA receptor blockage as measured in the apomorphine test and therapeutic efficacy of different antipsychotic drugs. Apomorphine produces in rats and other species a characteristic syndrome consisting of repetitive movements (stereotypies) and hyperactivity which appear to be due to activation of postsynaptic DA receptors in the brain (J. Pharm. Pharmacol. 19, 627, 1967; J. Neurol. transm. 40, 97-113, 1977). […]
Directly after injection, the animals were placed in the cages, one in each cage. […] The strength of the stereotype was scored on a 0-3 scale as follows:
as §1

Compound `CCc1cc(OC)c(OC)c(C(=O)NC[C@@H]2CCCN2CC)c1O` has an IC50 (dopamine receptors) of 1.3 nM.
Compound `COc1cc(Br)c(O)c(C(=O)NC[C@H]2CCCN2Cc2ccc(F)cc2)c1OC` has an IC50 (dopamine receptors) of 1.3 nM.
For `CCN1CCC[C@H]1CNC(=O)c1c(OC)ccc(Br)c1OC` [Remoxipride], the “antagonism/inhibition of the apomorphine syndrome in the rat” value (apomorphine syndrome) is given as “potent antagonist”.
`CCCc1cc(OC)c(OC)c(C(=O)NC[C@@H]2CCCN2CC)c1O` showed an IC50 (dopamine receptors) of 2.4 nM.
Compound `C=CCN1CCC[C@H]1CNC(=O)c1c(O)c(Br)cc(OC)c1OC` has an IC50 (dopamine receptors) of 2.3 nM.
With `CCN1CCC[C@H]1CNC(=O)c1c(O)c(Cl)cc(OC)c1OC` the IC50 (dopamine receptors) was 0.3 nM.
With `CCN1CCC[C@H]1CNC(=O)c1c(O)c(Br)cc(OC)c1OC` the IC50 (dopamine receptors) was 1.4 nM.
Work on `CCN1CCC[C@H]1CNC(=O)c1c(O)ccc(OC)c1OC` yielded an IC50 (dopamine receptors) of 8.8 nM.
For `CCN1CCCC1CNC(=O)c1c(O)c(Cl)cc(Cl)c1OC` (centres unmarked), the “antagonism/inhibition of the apomorphine syndrome in the rat” value (apomorphine syndrome) is listed as “potent inhibitors”.
With `CCN1CCC[C@H]1CNC(=O)c1c(O)c(Cl)cc(Cl)c1OC` the “Reduction of hyperactivity ED50” value [1] was 0.11 µmol/kg and the “Reduction of stereotypies ED50” value [2] was 2.4 µmol/kg.
